Experimental data from patent publication US6555733B2, “Genes coding for amino acid deacetylases with specificity for N-acetyl-L-phosphinothricin, their isolation and use” (priority 1996, dated 2003).

Assays:
[1] = system: N-acetyl-PPT deacetylase (Deac1 protein); assay: Nonradioactive test, substrate specificity of purified deacetylase (amino acid analyzer); type: biochemical, Stenotrophomonas sp.; settings: 25 mM substrate; for Rel. activity: 60 min, 28 °C, 5 μg enzyme, hippuric acid set equal to 100%
Description: (2) Nonradioactive test: To investigate the substrate specificity, 5 μg each of purified enzyme were incubated for 60 min. at 28° C. in 20 μl batches in PBS buffer with, in each case, 25 mM of a certain N-acetyl- or N-acylamino acid. The samples were then measured in an amino acid analyzer (Biotronic LC 5001) for formation of the free amino acids. The specific activities were determined in [nmol of amino acid/min/mg of protein]. For the N-acetyl-PPT deacetylase, a pH optimum of pH=8 (see Tab. 1) and a temperature optimum of 37° C. (see Tab. 2) were determined. […] By addition of 1 mM CoCl2, the enzyme activity could be increased by about 20%.

[2] = system: leaves of tobacco plants (35S promoter-deac1 transformants, nontransgenic controls); assay: Drop experiment on leaves of pPCVKDEAC1 tobacco plants and nontransgenic control plants; type: in vivo, Nicotiana tabacum; set-up: key to Drop experiment, leaf symptoms: +++: severe necrosis; ++: marked damage; +: slight lightening; −: no symptoms
Text: The deac1 structural gene was recloned as a 1.4 kb BamHI/SalI PCT fragment into the binary vector pPCV801 (Koncz and Schell, 1986, Mol. Gen. Genet. 204: 383-396) under control of the 35S promoter. The resulting plasmid pPCVKDEAC1 (FIG. 2) with the expression vector 35S promoter-deac1-structural gene-35S terminator was transformed in Agrobacterium tumefaciens (strain ATHV) using standard methods. Pieces of tobacco leaf (Nicotiana tabacum) were transformed with the recombinant Agrobacteria according to the method of Horsch et al., 1985, Science 227: 1229-1231 and selected on kanamycin medium, 18 independent tobacco transformants were regenerated and tested for expression of the deacetylase in the leaves. In the case of activity of the protein in the transgenic plants, a sensitivity of the leaves to N-acetyl-PPT was to be expected, because the substance in the plant is then converted into the herbicidal active compound phosphinothricin on account of the enzymatic activity of the deacetylase.
In a drop experiment, the leaves of the transgenic plants and of a number of nontransgenic control plants were treated with 5 μl each of the following concentrations of N-acetyl-D,L-PPT: 4 mg/ml(=15 mM), 1 mg/ml(=3.75 mM), 0.4 mg/ml(=1.5 mM), 0.1 mg/ml(=0.38 mM). The treatment sites were examined for lightening or necrosis formation after 1-2 weeks. Simultaneously, the N-acetyl-PPT-specific deacetylase activity of the transformants, and also of the control plants, was measured in crude extracts. To do this, 100 mg each of leaf material were homogenized in 200 μl of PBS buffer, the cell debris was centrifuged off and the protein-containing supernatants were dialyzed overnight at 4° C. against the same buffer. 10 μl each of these samples were incubated with 0.1 mM [^14C]-N-acetyl-L-PPT overnight at 37° C. The batches were then analyzed in the HPLC, as described above, for formation of [^14C]-L-PPT.

[3] = system: flower buds of tobacco plants (tap1 promoter-deac1 transformants, NT Sam NN controls); assay: Flower bud treatment, induced male sterility in pPCVTDEAC1 tobacco plants; type: in vivo, Nicotiana tabacum
Text: Using standard methods, the tapetum-specific promoter of the tap1 gene from snapdragon (Antirrhinum majus) was fused in the vector pUC18 as a 2.2 kb EcoRI/BamHI fragment with the deac1 structural gene (1.4 kb BamHI/SalI-PCR fragment) and the 35S terminator. The expression cassette tap1 promoter-deac structural gene-35S terminator thus resulting was cloned into the binary vector pPCV801 as a 3.8 kb EcoRI fragment instead of the 35S promoter/terminator region (plasmid pPCVTDEAC1, FIG. 3). The transformation of tobacco was carried out as described in Example 4.
In the case of tapetum-specific expression of the deacetylase, it should be possible by treatment of the flower buds with N-acetyl-PPT to induce male-sterile flowers. The conversion of the PPT derivative into the herbicidal active compound phosphinothricin leads to selective damage to the tapetum tissue, by means of which the development of functional pollen is prevented.
In each case only one side of the inflorescences (the total area of the developing flower buds) was treated with N-acetyl-PPT, the other side of the influorescences remained untreated in order to ensure that the phenomena to be observed are not to be attributed to deformities of the respective plants. The treatment was carried out at a time at which the individual buds were not larger than 5 mm (active phase for tapetum promoter). The tobacco transformants and also a number of NT Sam NN control plants were treated 3× with 0.2% N-acetyl-D,L-PPT(=7.5 mM)/0.1% Genapol (wetting agent) within one week. After the blooming of the buds (about 9-11 days after conclusion of the treatment), the plants were investigated for the occurrence of male-sterile flowers.

[4] = system: N-acetyl-PPT deacetylase (Deac1 protein); assay: Radioactive test of purified N-acetyl-PPT deacetylase (Deac1) with [14C]-N-acetyl-L-PPT, HPLC; type: biochemical, Stenotrophomonas sp.; settings: for Km: substrate [14C]-N-acetyl-L-PPT 0.01-1 mM, pH=8.0, 1 mM CoCl2, 3-fold determinations; for Spec. activity: substrate [14C]-N-acetyl-L-PPT
deac2 gene product = assay: Conversion of N-acetylated amino acids by permeabilized E. coli XLI blue cells with pGK81; type: cell-based, Comamonas acidovorans; settings: 25 mM, 3 hours at 30 °C
Description: To investigate the substrate specificity of the deac2 gene product from Comamonas acidovorans, cells of E. coli strain XLI blue permeabilized by toluene/ethanol treatment were used with and without the vector pGK81. The induction of the deac2 gene repressed by the Lac^i repressor present in this strain could be achieved by IPTG treatment. The permeabilized cells were incubated for 3 hours at 30° C. with various N-acetylated amino acids (final concentration 25 mM) and the supernatants were investigated with the aid of an amino acid analyzer. It turned out here that more than 20% of the N-acetylornithine made available was converted. For N-acetyl-phosphinothricin too, an increasing deacetylation to phosphinothricin, analogous to the concentration of N-acetylphosphinothricin employed, could be found (Table 7).
The concentrations of the N-acetylated amino acids employed and the amino acids formed by deacetylation are indicated.

CC(=O)N1CCCC1C(=O)O (stereo not shown) [N-Ac-proline]
Rel. activity [1]: 0%

O=C(O)CNC(=O)c1ccccc1 [Hippuric acid, N-benzoylglycine]
conversion by the deacetylase (in words) [1]: highest conversions
Rel. activity [1]: 100%

CC(=O)NC(CCP(C)(=O)O)C(=O)O (racemic) [N-acetyl-D,L-PPT, N-acetylphosphinothricin]
Drop experiment, leaf symptoms ([2]; Control plant, 0.1 mg/ml): −
Drop experiment, leaf symptoms ([2]; Control plant, 0.4 mg/ml): −
Drop experiment, leaf symptoms ([2]; Control plant, 1 mg/ml): −
Drop experiment, leaf symptoms ([2]; Control plant, 4 mg/ml, 5 μl, after 1-2 weeks): −
concentration to which leaves still react sensitively ([2]; constitutive expression of the deac gene, greenhouse plants (=0.2 mg/ml of L-enantiomer)): 0.4 mg/mL
Drop experiment, leaf symptoms ([2]; plant pPCVK9, 0.1 mg/ml): −
Drop experiment, leaf symptoms ([2]; plant pPCVK9, 0.4 mg/ml): −
Drop experiment, leaf symptoms ([2]; plant pPCVK9, 1 mg/ml): +
Drop experiment, leaf symptoms ([2]; plant pPCVK9, 4 mg/ml): +++
Drop experiment, leaf symptoms ([2]; plant pPCVK14, 0.1 mg/ml): −
Drop experiment, leaf symptoms ([2]; plant pPCVK14, 0.4 mg/ml): −
Drop experiment, leaf symptoms ([2]; plant pPCVK14, 1 mg/ml): +
Drop experiment, leaf symptoms ([2]; plant pPCVK14, 4 mg/ml): +
Drop experiment, leaf symptoms ([2]; plant pPCVK15, 0.1 mg/ml): −
Drop experiment, leaf symptoms ([2]; plant pPCVK15, 0.4 mg/ml): +
Drop experiment, leaf symptoms ([2]; plant pPCVK15, 1 mg/ml): +
Drop experiment, leaf symptoms ([2]; plant pPCVK15, 4 mg/ml): ++
Drop experiment, leaf symptoms ([2]; plant pPCVK16, 0.1 mg/ml): −
Drop experiment, leaf symptoms ([2]; plant pPCVK16, 0.4 mg/ml): −
Drop experiment, leaf symptoms ([2]; plant pPCVK16, 1 mg/ml): +
Drop experiment, leaf symptoms ([2]; plant pPCVK16, 4 mg/ml): +
Drop experiment, leaf symptoms ([2]; plant pPCVK17, 0.1 mg/ml): −
Drop experiment, leaf symptoms ([2]; plant pPCVK17, 0.4 mg/ml): −
Drop experiment, leaf symptoms ([2]; plant pPCVK17, 1 mg/ml): +
Drop experiment, leaf symptoms ([2]; plant pPCVK17, 4 mg/ml): +
Number of sterile or pollen-reduced flowers, treated ([3]; Control plant, 3x 0.2% N-acetyl-D,L-PPT/0.1% Genapol within one week): 0
Number of sterile or pollen-reduced flowers, treated ([3]; plant pPCT16): 10
Number of sterile or pollen-reduced flowers, treated ([3]; plant pPCVT14): 18
Number of sterile or pollen-reduced flowers, treated ([3]; plant pPCVT15): 0
induction of male-sterile flowers (in words) ([3]; tapetum-specific expression, buds treated with 2 mg/ml (=1 mg/ml of L-enantiomer), greenhouse plants): induction of male-sterile flowers was achieved

CC(=O)N[C@@H](CC(C)C)C(=O)O [N-Ac-leucine]
Rel. activity [1]: 33%

CC(=O)NC(Cc1c[nH]c2ccccc12)C(=O)O (stereo not shown) [N-Ac-tryptophan]
Rel. activity [1]: 0.4%

CC(=O)NCC(=O)O [N-Ac-glycine]
Rel. activity [1]: 59%

CC(=O)N[C@@H](CCP(C)(=O)O)C(=O)O [N-acetyl-L-PPT, N-acetyl-L-phosphinothricin]
affinity below that for hippuric acid and N-acetyl-L-glutamate [1]: approximately 50%
Rel. activity [1]: 43%
Km [4]: 670 µM

CC(=O)N[C@@H](Cc1cnc[nH]1)C(=O)O [N-Ac-histidine]
Rel. activity [1]: 43%

CC(=O)NC(CO)C(=O)O (stereo not shown) [N-Ac-serine]
Rel. activity [1]: 4%

CC(=O)N[C@H](C(=O)O)C(C)C [N-Ac-valine]
Rel. activity [1]: 2%

CC(=O)N[C@@H](CCCN)C(=O)O [N-Ac-ornithine]
Rel. activity [1]: 37%

CC(=O)N[C@@H](CCC(=O)O)C(=O)O [N-Ac-glutamic acid, N-acetyl-L-glutamate]
conversion by the deacetylase (in words) [1]: highest conversions
Rel. activity [1]: 100%

CC(=O)N[C@@H](CCCN)C(=O)O [N-acetyl-ornithine, N-acetylornithine]
share of substrate made available that was converted (deac2 gene product): more than 20%

CC(=O)N[C@@H](CCC(N)=O)C(=O)O [N-Ac-glutamine]
Rel. activity [1]: 30%

[Cl-].[Cl-].[Co+2] [CoCl2]
increase of enzyme activity [4]: about 20%

CSCCC(NC(C)=O)C(=O)O (stereo not shown) [N-Ac-methionine]
Rel. activity [1]: 0%

CC(=O)NC(Cc1ccccc1)C(=O)O (stereo not shown) [N-Ac-phenylalanine]
Rel. activity [1]: 24%

CC(=O)N[C@@H](Cc1ccc(O)cc1)C(=O)O [N-Ac-tyrosine]
Rel. activity [1]: 11%

B1: N-acetyl-PPT deacetylase: deacetylase from Stenotrophomonas sp., 454 amino acids (SEQ ID NO:2), purified from E. coli as GST fusion cleavage product (protein)
chain: MIRKTVLLTALSCALASATATAAEGQRPEVEAAAARLQRQVVEWRRDFHQHPELSNREVRTAAKVAERLRAMGLQPQTGVAVHGVVAIIKGALPGPKIALRADMDALPVTEQTGLPFASTATAEYRGEKVGVMHACGHDAHTATLLGVADALVAMRDTLPGEVMLIFQPAEEGAPPPEQGGAELMLKEGLFKEFKPEAVFGLHVFSSVQAGQIAVRGGPLMAASDRFAITVNGRQTHGSAPWNGIDPIVAASDLIGTAQTIVSRRANLSKQPAVLTFGAIKGGIRYNIIPDSVEMVGTIRTFDPDMRKQIFADLRNVAEHTAAAHGATATTDIYEKDGNPATVNDPALTARMLPSLQAVVGKDNVYEPPLQMGSEDFSLYAQQVPAMFFFVGSTGAGIDPATAPSNHSPKFLLDEKALDVGLRALLQVSLDYLHGGKAG
modifications: Stenotrophomonas sp
Spec. activity ([4]; 28 °C): 9.6 nmol/min/mg of protein
Spec. activity ([4]; 37 °C): 16.8 nmol/min/mg of protein
Spec. activity ([4]; 50 °C): 14.9 nmol/min/mg of protein
Spec. activity ([4]; 60 °C): 4.3 nmol/min/mg of protein
Spec. activity ([4]; pH 6): 2.4 mol/min/mg of protein
Spec. activity ([4]; pH 8): 12.0 mol/min/mg of protein
Km [4]: 670 µM
